The text below walks through data of patent US20160002180A1, “ANTIVIRAL COMPOUNDS” (priority 2013, published 2016).

What all share (assay): microbe, parasite or virus in culture
Format in all cases: cell-based

Experiment [1] deals with HCVpp GT-1b (pseudotyped HCV GT1b particles, E1 and E2 envelope proteins of GT1b Con1 strain). The settings on record: Hepatitis C virus, 72 h, read-out: HCVpp GT-1b (EC50, μM).
The test system of experiment [2] is VSVpp (pseudotyped VSV G particles). The settings on record: Vesicular stomatitis virus, 72 h, read-out: VSVpp (EC50, μM).
Experiment [3] deals with HCVpp GT-1a (pseudotyped HCV GT1a particles, E1 and E2 envelope proteins of GT1a H77 strain). The settings on record: Hepatitis C virus, 72 h, read-out: HCVpp GT-1a (EC50, μM).

A word on the EC50: it is the concentration that produces a half-maximal response. On to `Cc1nc(Nc2cc(Cl)cc(Cl)c2)n[nH]1` [Compound 1, (3,5-Dichloro-phenyl)-(5-methyl-1H-[1,2,4]triazol-3-yl)-amine], for which the EC50 in experiment [1] is 6.25 µM; in experiment [2], 100 µM; in experiment [3], 1.99 µM.

In the case of `Clc1cc(Cl)cc(Nc2n[nH]c(-c3ccccc3)n2)c1` [Compound 2, (3,5-Dichloro-phenyl)-(5-phenyl-1H-[1,2,4]triazol-3-yl)-amine], the EC50 amounted to 27.5 µM in experiment [1], 30.1 µM in experiment [2] and 26.7 µM in experiment [3].

`NCc1nc(Nc2cc(Cl)cc(Cl)c2)n[nH]1` [Compound 3, (5-Aminomethyl-1H-[1,2,4]triazol-3-yl)-(3,5-dichloro-phenyl)-amine]: the EC50 in experiment [1] and in experiment [2] was 100 µM throughout.

Take `Fc1n[nH]c(Nc2cc(Cl)cc(Cl)c2)n1` [Compound 4, (3,5-Dichloro-phenyl)-(5-fluoro-2H-[1,2,4]triazol-3-yl)-amine]: the results for the EC50 in experiment [1], in experiment [2] and in experiment [3] were 30.1 µM, 30.9 µM and 28.7 µM, respectively.

On to `COCc1n[nH]c(Nc2cc(Cl)cc(Cl)c2)n1` [Compound 5, (3,5-Dichloro-phenyl)-(5-methoxymethyl-2H-[1,2,4]triazol-3-yl)-amine], for which the EC50 in experiment [1] worked out at 24.2 µM; in experiment [2], 100 µM; in experiment [3], 4.13 µM.

`COCc1n[nH]c(Nc2cc(Cl)nc(Cl)c2)n1` [Compound 6, (2,6-Dichloro-pyridin-4-yl)-(5-methoxymethyl-2H-[1,2,4]triazol-3-yl)-amine]: the figures for the EC50 in experiment [1], in experiment [2] and in experiment [3] were 35.5 µM, 100 µM and 4.59 µM, respectively.

In the case of `Clc1cc(Cl)cc(Nc2nc(Br)n[nH]2)c1` [Compound 7, (5-Bromo-2H-[1,2,4]triazol-3-yl)-(3,5-dichloro-phenyl)-amine], the EC50 in experiment [1] worked out at 20.8 µM; in experiment [2], 28.2 µM; in experiment [3] it was 16.5 µM.

On to `COc1n[nH]c(Nc2cc(Cl)cc(Cl)c2)n1` [Compound 8, (3,5-Dichloro-phenyl)-(5-methoxy-2H-[1,2,4]triazol-3-yl)-amine], for which the EC50 in experiment [1] was 52.6 µM; in experiment [2], 100 µM; in experiment [3], 15.9 µM.

As to `COc1n[nH]c(Nc2cc(Cl)nc(Cl)c2)n1` [Compound 9, (2,6-Dichloro-pyridin-4-yl)-(5-methoxy-2H-[1,2,4]triazol-3-yl)-amine], the EC50 in experiment [1] came to 45.3 µM; in experiment [2], 98 µM; in experiment [3], 13.2 µM.

Consider `COc1n[nH]c(Nc2ccc(C#N)c(C(F)(F)F)c2)n1` [Compound 10, 4-(5-Methoxy-2H-[1,2,4]triazol-3-ylamino)-2-trifluoromethyl-benzonitrile], for which the EC50 was found to be 7.83 µM in experiment [1], 8.3 µM in experiment [2] and 7.53 µM in experiment [3].

For `COc1n[nH]c(Nc2cc(Cl)c(Br)c(Cl)c2)n1` [Compound 11, (4-Bromo-3,5-dichloro-phenyl)-(5-methoxy-2H-[1,2,4]triazol-3-yl)-amine], the EC50 came to 7.23 µM in experiment [1], 12.7 µM in experiment [2] and 2.1 µM in experiment [3].

Turning to `Clc1cc(Cl)cc(Nc2nc(Cl)n[nH]2)c1` [Compound 12, (5-Chloro-2H-[1,2,4]triazol-3-yl)-(3,5-dichloro-phenyl)-amine], the figures for the EC50 in experiment [2] and in experiment [3] were 14 µM and 13.8 µM, respectively.

As for `CS(=O)(=O)c1n[nH]c(Nc2cc(Cl)cc(Cl)c2)n1` [Compound 13, (3,5-Dichloro-phenyl)-(5-methanesulfonyl-2H-[1,2,4]triazol-3-yl)-amine], the EC50 in experiment [2] and in experiment [3] was 100 µM each time.

As for `CS(=O)(=O)c1n[nH]c(Nc2cc(Cl)c(Br)c(Cl)c2)n1` [Compound 14, (4-Bromo-3,5-dichloro-phenyl)-(5-methanesulfonyl-2H-[1,2,4]triazol-3-yl)-amine], the EC50 in experiment [2] and in experiment [3] was 100 µM in each case.

For the molecule `CN(C)c1nc(Nc2cc(Cl)cc(Cl)c2)n[nH]1` [Compound 15, N^3-(3,5-Dichloro-phenyl)-N^5,N^5-dimethyl-1H-[1,2,4]triazole-3,5-diamine], the concentration giving a half-maximal response (EC50) in experiment [2] was found to be 100 µM; in experiment [3] it was 24.8 µM.

For the molecule `CN(C)c1nc(Nc2cc(Cl)c(Br)c(Cl)c2)n[nH]1` [Compound 16, N^3-(4-Bromo-3,5-dichloro-phenyl)-N^5,N^5-dimethyl-1H-[1,2,4]triazole-3,5-diamine], the EC50 stood at 43.1 µM in experiment [2] and 1.58 µM in experiment [3].

For the molecule `Clc1cc(Nc2ncn[nH]2)cc(Cl)c1Cl` [Compound 17, (2H-[1,2,4]Triazol-3-yl)-(3,4,5-trichloro-phenyl)-amine], the EC50 is 28.2 µM in experiment [2] and 0.392 µM in experiment [3].

In the case of `Clc1cc(Nc2ncn[nH]2)cc(Cl)c1Br` [Compound 18, (4-Bromo-3,5-dichloro-phenyl)-(2H-[1,2,4]triazol-3-yl)-amine], the EC50 in experiment [1] is 2.52 µM; in experiment [2], 22.4 µM; in experiment [3], 0.252 µM.

In the case of `CNc1nc(Nc2cc(Cl)cc(Cl)c2)n[nH]1` [Compound 19, N^3-(3,5-Dichloro-phenyl)-N^5-methyl-1H-[1,2,4]triazole-3,5-diamine], the EC50 turned out to be 100 µM in experiment [2] and 3.41 µM in experiment [3].

Take `N#Cc1c(Cl)cc(Nc2ncn[nH]2)cc1Cl` [Compound 20, 2,6-Dichloro-4-(2H-[1,2,4]triazol-3-ylamino)-benzonitrile]: the EC50 in experiment [1] amounted to 1.66 µM; in experiment [2], 100 µM; in experiment [3] it was 0.121 µM.

On to `CNc1nc(Nc2ccc(C#N)c(C(F)(F)F)c2)n[nH]1` [Compound 21, 4-(5-Methylamino-1H-[1,2,4]triazol-3-ylamino)-2-trifluoromethyl-benzonitrile], for which the EC50 was 5.01 µM in experiment [1], 24.9 µM in experiment [2] and 1.26 µM in experiment [3].

In the case of `FC(F)(F)c1nc(Nc2cc(Cl)cc(Cl)c2)n[nH]1` [Compound 22, (3,5-Dichloro-phenyl)-(5-trifluoromethyl-1H-[1,2,4]triazol-3-yl)-amine], the EC50 in experiment [1] was found to be 5.63 µM; in experiment [2], 6.7 µM; in experiment [3], 5.5 µM.

On to `Clc1cc(Cl)cc(Nc2ncn(Cc3ccccc3)n2)c1` [Compound 23, (1-Benzyl-1H-[1,2,4]triazol-3-yl)-(3,5-dichloro-phenyl)-amine], for which the 50% effective concentration (EC50) is 53 µM in experiment [1], 46.5 µM in experiment [2] and 28.9 µM in experiment [3].

`Clc1cc(Cl)cc(Nc2ncnn2Cc2ccccc2)c1` [Compound 24, (2-Benzyl-2H-[1,2,4]triazol-3-yl)-(3,5-dichloro-phenyl)-amine]: the EC50 in experiment [1] came to 32.5 µM; in experiment [2] it was 34.9 µM; in experiment [3], 27.1 µM.

For `Clc1cc(Cl)cc(Nc2nc[nH]n2)c1` [Compound 25, (3,5-Dichloro-phenyl)-(1H-[1,2,4]triazol-3-yl)-amine], the values for the EC50 in experiment [1], in experiment [2] and in experiment [3] were 5.17 µM, 97 µM and 1.06 µM, respectively.

`Fc1c(Cl)cc(Nc2ncnn2Cc2ccccc2)cc1Cl` [Compound 26, (2-Benzyl-2H-[1,2,4]triazol-3-yl)-(3,5-dichloro-4-fluoro-phenyl)-amine]: the figures for the EC50 in experiment [1], in experiment [2] and in experiment [3] were 27.1 µM, 17.5 µM and 16.2 µM, respectively.

In the case of `Fc1c(Cl)cc(Nc2ncn(Cc3ccccc3)n2)cc1Cl` [Compound 27, (1-Benzyl-1H-[1,2,4]triazol-3-yl)-(3,5-dichloro-4-fluoro-phenyl)-amine], the EC50 was 8.91 µM in experiment [1], 9.11 µM in experiment [2] and 6.13 µM in experiment [3].

In the case of `Fc1c(Cl)cc(Nc2nc[nH]n2)cc1Cl` [Compound 28, (3,5-Dichloro-4-fluoro-phenyl)-(1H-[1,2,4]triazol-3-yl)-amine], the EC50 in experiment [1] came to 3.77 µM; in experiment [2], 84.1 µM; in experiment [3], 0.477 µM.

With `Nc1cccc(Nc2ncn(Cc3ccccc3)n2)c1` [Compound 29, N-(1-Benzyl-1H-[1,2,4]triazol-3-yl)-benzene-1,3-diamine], the results for the EC50 in experiment [1], in experiment [2] and in experiment [3] were 87.2 µM, 100 µM and 95 µM, respectively.

Take `Clc1cc(Nc2nc[nH]n2)cc(Cl)n1` [Compound 30, (2,6-Dichloro-pyridin-4-yl)-(1H-[1,2,4]triazol-3-yl)-amine]: the EC50 is 100 µM in experiment [2] and 1.06 µM in experiment [3].

With `Fc1c(Cl)cc(Nc2n[nH]c(N3CCOCC3)n2)cc1Cl` [Compound 31, (3,5-Dichloro-4-fluoro-phenyl)-(5-morpholin-4-yl-1H-[1,2,4]triazol-3-yl)-amine], the figures for the 50% effective concentration (EC50) in experiment [2] and in experiment [3] were 29.9 µM and 25.8 µM, respectively.

With `CC(C)c1nc(Nc2cc(Cl)cc(Cl)c2)n[nH]1` [Compound 32, (3,5-Dichloro-phenyl)-(5-isopropyl-1H-[1,2,4]triazol-3-yl)-amine], the EC50 in experiment [2] amounted to 33.8 µM; in experiment [3] it was 22.1 µM.

In the case of `CC(C)Cc1nc(Nc2cc(Cl)cc(Cl)c2)n[nH]1` [Compound 33, (3,5-Dichloro-phenyl)-(5-isobutyl-1H-[1,2,4]triazol-3-yl)-amine], the figures for the EC50 in experiment [1], in experiment [2] and in experiment [3] were 61.7 µM, 100 µM and 1.26 µM, respectively.

As for `Clc1cc(Cl)cc(Nc2n[nH]c(Cc3ccccc3)n2)c1` [Compound 34, (5-Benzyl-1H-[1,2,4]triazol-3-yl)-(3,5-dichloro-phenyl)-amine], the EC50 is 13.5 µM in experiment [1], 38.9 µM in experiment [2] and 0.785 µM in experiment [3].
